Data: ChEMBL document CHEMBL1201862, “PubChem BioAssay data set” (2004)
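Each compound was tested at five concentrations against cells in 96-well plates for 48 hours. GI50 is the concentration that inhibits growth by half.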 Calls of active or inactive are those of the source. Cut-off read from the data, not from the text of the source: active = GI50 up to about 1.1 µM and inactive = higher.

What was measured:
Assay in all cases: NCI anticancer screen, dose series, 48 h
A498 = tested on: A498
OVCAR-3 = tested on: OVCAR-3
SK-OV-3 = tested on: SK-OV-3
NCI-H460 = tested on: NCI-H460
TK-10 = tested on: TK-10
LOX IMVI = tested on: LOX IMVI
OVCAR-8 = tested on: OVCAR-8
SK-MEL-28 = tested on: SK-MEL-28
SK-MEL-5 = tested on: SK-MEL-5
SR = tested on: SR
UACC-62 = tested on: UACC-62
SF-539 = tested on: SF-539
HT-29 = tested on: HT-29
A549 = tested on: A549
RXF 393 = tested on: RXF 393
MDA-MB-231 = tested on: MDA-MB-231
MCF7 = tested on: MCF7
PC-3 = tested on: PC-3
MDA-MB-435 = tested on: MDA-MB-435

Measured: GI50

CC(=O)Oc1cc2c(=O)oc3c(OC(C)=O)c(OC(C)=O)c(OC(C)=O)c4c(=O)oc(c1OC(C)=O)c2c34
inactive: A498 65 µM | OVCAR-3 > 100 µM | SK-OV-3 36.3 µM | NCI-H460 34.7 µM | TK-10 > 100 µM | LOX IMVI 15.6 µM | OVCAR-8 56.6 µM | SK-MEL-28 32.7 µM | SK-MEL-5 61.1 µM | SR 24.8 µM | UACC-62 33.2 µM | SF-539 24.8 µM | HT-29 37.9 µM | A549 > 100 µM | RXF 393 6.18 µM

COc1ccc([C@H]2CC(=O)N3CCCC3N2)cc1 (stereo partly drawn)
inactive: A498 > 100 µM | SK-OV-3 > 100 µM | NCI-H460 > 100 µM | TK-10 > 100 µM | OVCAR-8 > 100 µM | SK-MEL-28 > 100 µM | SK-MEL-5 > 100 µM | SR > 100 µM | UACC-62 > 100 µM | SF-539 > 100 µM | HT-29 > 100 µM | A549 > 100 µM | RXF 393 > 100 µM

COC(OC)c1cccc2c1C1(O)CCC3(CC21)OCCCCO3 (stereo not drawn)
inactive: A498 > 100 µM | OVCAR-3 > 100 µM | SK-OV-3 > 100 µM | NCI-H460 > 100 µM | TK-10 > 100 µM | LOX IMVI > 100 µM | OVCAR-8 > 100 µM | SK-MEL-28 > 100 µM | SK-MEL-5 > 100 µM | SR > 100 µM | UACC-62 > 100 µM | SF-539 > 100 µM | HT-29 > 100 µM | A549 > 100 µM | RXF 393 > 100 µM

C[N+](C)=c1nc(N2CCc3ccccc3C2)ss1.[O-][Cl+3]([O-])([O-])[O-]
inactive: A498 > 100 µM | OVCAR-3 82 µM | SK-OV-3 > 100 µM | NCI-H460 > 100 µM | TK-10 > 100 µM | OVCAR-8 > 100 µM | SK-MEL-28 > 100 µM | SK-MEL-5 > 100 µM | SR 54.5 µM | UACC-62 > 100 µM | SF-539 > 100 µM | A549 > 100 µM | RXF 393 77.4 µM

COc1ccc(/C=C\c2cc(OC)c(OC(C)=O)c(OC)c2)cc1
inactive: A498 14.2 µM | OVCAR-3 20.8 µM | SK-OV-3 51.8 µM | NCI-H460 2.49 µM | OVCAR-8 8.89 µM | SK-MEL-28 3.43 µM | SK-MEL-5 5.55 µM | SR 13.3 µM | UACC-62 8.15 µM | SF-539 2.32 µM | HT-29 12.4 µM | A549 5.18 µM

O=C(O)CCSC(=O)Nc1cccc2ccccc12
inactive: A498 > 100 µM | OVCAR-3 > 100 µM | SK-OV-3 > 100 µM | NCI-H460 > 100 µM | TK-10 > 100 µM | LOX IMVI > 100 µM | OVCAR-8 > 100 µM | SK-MEL-28 > 100 µM | SK-MEL-5 > 100 µM | SR > 100 µM | UACC-62 > 100 µM | SF-539 > 100 µM | HT-29 > 100 µM | A549 > 100 µM | RXF 393 > 100 µM

COc1ccc(C2OC(=O)c3c2ccc2ccccc32)c(C)c1 (stereo not drawn)
inactive: A498 1.93 µM | MDA-MB-231 3 µM | NCI-H460 3.3 µM | TK-10 2.94 µM | OVCAR-8 4.06 µM | SK-MEL-28 2.92 µM | SK-MEL-5 1.77 µM | SR 2.42 µM | UACC-62 7.19 µM | HT-29 3.37 µM | MCF7 3.45 µM | PC-3 3.27 µM | A549 3.07 µM | RXF 393 2.69 µM

CC1=C(C#N)C(N)=C2C(C)=C(C#N)C(N)=C12
inactive: A498 > 100 µM | OVCAR-3 > 100 µM | SK-OV-3 > 100 µM | NCI-H460 > 100 µM | TK-10 > 100 µM | LOX IMVI > 100 µM | OVCAR-8 > 100 µM | SK-MEL-5 > 100 µM | SR > 100 µM | UACC-62 > 100 µM | SF-539 > 100 µM | HT-29 > 100 µM | A549 > 100 µM | RXF 393 > 100 µM

CC(C)(C)NN=C1C(C)(C)C(=NNC(C)(C)C)C1(C)C
inactive: OVCAR-3 > 100 µM | SK-OV-3 > 100 µM | NCI-H460 > 100 µM | TK-10 > 100 µM | LOX IMVI > 100 µM | OVCAR-8 > 100 µM | SK-MEL-28 > 100 µM | SK-MEL-5 > 100 µM | SR > 100 µM | UACC-62 > 100 µM | SF-539 > 100 µM | HT-29 > 100 µM | A549 > 100 µM | RXF 393 > 100 µM

Cn1cnc([N+](=O)[O-])c1Sc1nc2cccnc2[nH]1
inactive: A498 > 100 µM | OVCAR-3 > 100 µM | SK-OV-3 > 100 µM | NCI-H460 > 100 µM | TK-10 55.6 µM | LOX IMVI 79.8 µM | OVCAR-8 86.5 µM | SK-MEL-28 62.5 µM | SK-MEL-5 > 100 µM | SR 35.9 µM | UACC-62 67.6 µM | SF-539 > 100 µM | HT-29 > 100 µM | A549 90.2 µM | RXF 393 97.5 µM

Cn1nc2n(c1=O)CCCN2
inactive: A498 > 100 µM | OVCAR-3 > 100 µM | MDA-MB-231 > 100 µM | NCI-H460 > 100 µM | TK-10 > 100 µM | LOX IMVI > 100 µM | OVCAR-8 > 100 µM | SK-MEL-28 > 100 µM | SK-MEL-5 > 100 µM | SR > 100 µM | SF-539 > 100 µM | HT-29 > 100 µM | PC-3 > 100 µM | MDA-MB-435 > 100 µM | A549 > 100 µM | RXF 393 > 100 µM

Brc1ccc2c(c1)C1(c3cc(Br)ccc3-2)c2cc(Br)ccc2-c2ccc(Br)cc21
inactive: OVCAR-3 > 100 µM | SK-OV-3 > 100 µM | NCI-H460 > 100 µM | TK-10 > 100 µM | LOX IMVI > 100 µM | OVCAR-8 > 100 µM | SK-MEL-28 > 100 µM | SR > 100 µM | UACC-62 > 100 µM | SF-539 > 100 µM | HT-29 > 100 µM | A549 > 100 µM | RXF 393 > 100 µM

N/C(=N\N=C=C1C(=O)Nc2ccc(F)cc21)NO
inactive: A498 > 100 µM | OVCAR-3 > 100 µM | SK-OV-3 59.2 µM | NCI-H460 74.5 µM | TK-10 > 100 µM | LOX IMVI > 100 µM | OVCAR-8 > 100 µM | SK-MEL-28 > 100 µM | SK-MEL-5 > 100 µM | SR > 100 µM | UACC-62 39.3 µM | SF-539 > 100 µM | HT-29 > 100 µM | A549 > 100 µM | RXF 393 > 100 µM

COC(=O)c1cc(Br)c(Br)n1C
inactive: A498 > 100 µM | OVCAR-3 > 100 µM | SK-OV-3 > 100 µM | TK-10 > 100 µM | LOX IMVI > 100 µM | OVCAR-8 > 100 µM | SK-MEL-28 > 100 µM | SK-MEL-5 > 100 µM | SR 33.9 µM | UACC-62 > 100 µM | SF-539 > 100 µM | HT-29 > 100 µM | A549 > 100 µM | RXF 393 > 100 µM
